Test results taken from PMC9312917 (2022).

Experiments:
Test in all cases: graphene oxide fluorescence assay
Settings in all cases: 100 mM NaCl, 5 mM KCl, 2 mM MgCl2, 1 mM CaCl2; 20 mM Tris-HCl pH 7.5, room temperature; aptamer 0-400 nM titrated at fixed 1 µg/mL SQX
[1] = system: SBA28-1 (DNA, aptamer) CCCTAGGGG
[2] = system: SBA40-1 (DNA, aptamer) GGCTGACTGCT
[3] = system: SBA24-1 (DNA, aptamer) GCGTGAGC

Kd [1]: 27.36 nM
Kd [2]: 36.73 nM
Kd [3]: 74.19 nM
SMILES: Nc1ccc(S(=O)(=O)Nc2cnc3ccccc3n2)cc1
